Experimental data from the supplement of paper PMC10883282.

What was measured:
Assay in all cases: relative viability vs DMSO control (72 h) (fraction); higher = more viable cells
[1] = system: SK-ES-1
Summary of the method: (§1)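 ATPLite readings, expressed as percent growth and averaged over up to triplicate wells, provided relative viability. Before reading, sarcoma cell lines seeded in 384-well plates to reach 80–90% confluence received 2.5 µl of serially diluted compound after 24 h, from source plates of 10 mM to 0.0002 mM. Plates were held 72 h at 37 °C, 5% CO2, with 0.1% DMSO as vehicle and a 5 µM positive control. The data were rescaled to 1 for full and 0 for none.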

[2] = system: G401
Summary of the method: as §1

[3] = system: A204
Summary of the method: as §1

[4] = system: SW684
Summary of the method: as §1

[5] = system: MES-SA
Summary of the method: as §1

[6] = system: VA-ES-BJ
Summary of the method: as §1

[7] = system: SK-LMS-1
Summary of the method: as §1

[8] = system: RD
Summary of the method: as §1

[9] = system: KHOS-NP
Summary of the method: as §1

[10] = system: SYO-1
Summary of the method: as §1

[11] = system: HS729
Summary of the method: as §1

[12] = system: SW872
Summary of the method: as §1

FC(F)(F)c1ccc(CNc2ccc(Cc3c[nH]c4ncc(Cl)cc34)cn2)cn1 [Pexidartinib]
Settings | relative viability
[1], 0.00017 µM | 1.05
[1], 0.00051 µM | 1.03
[1], 0.00152 µM | 1.02
[1], 0.00457 µM | 1.07
[1], 0.01372 µM | 1.04
[1], 0.04115 µM | 1.06
[1], 0.1235 µM | 1.03
[1], 0.3704 µM | 1.03
[1], 1.111 µM | 0.978
[1], 3.333 µM | 1.02
[1], 10 µM | 0.915
[2], 0.00017 µM | 1.03
[2], 0.00051 µM | 1.036
[2], 0.00152 µM | 1.03
[2], 0.00457 µM | 1.05
[2], 0.01372 µM | 1.02
[2], 0.04115 µM | 1
[2], 0.1235 µM | 0.685
[2], 0.3704 µM | 0.9956
[2], 1.111 µM | 0.9873
[2], 3.333 µM | 0.95
[2], 10 µM | 0.8332
[3], 0.00017 µM | 1.14
[3], 0.00051 µM | 1.14
[3], 0.00152 µM | 1.09
[3], 0.00457 µM | 1.08
[3], 0.01372 µM | 1.07
[3], 0.04115 µM | 1.08
[3], 0.1235 µM | 1.05
[3], 0.3704 µM | 0.898
[3], 1.111 µM | 0.576
[3], 3.333 µM | 0.463
[3], 10 µM | 0.393
[4], 0.00017 µM | 1.14
[4], 0.00051 µM | 1.2
[4], 0.00152 µM | 1.19
[4], 0.00457 µM | 1.2
[4], 0.01372 µM | 1.15
[4], 0.04115 µM | 1.15
[4], 0.1235 µM | 1.16
[4], 0.3704 µM | 1.13
[4], 1.111 µM | 1.13
[4], 3.333 µM | 1.14
[4], 10 µM | 1.12
[5], 0.00017 µM | 0.96
[5], 0.00051 µM | 0.947
[5], 0.00152 µM | 0.954
[5], 0.00457 µM | 0.936
[5], 0.01372 µM | 0.911
[5], 0.04115 µM | 0.934
[5], 0.1235 µM | 0.923
[5], 0.3704 µM | 0.883
[5], 1.111 µM | 0.892
[5], 3.333 µM | 0.872
[5], 10 µM | 0.69
[6], 0.00017 µM | 1.07
[6], 0.00051 µM | 1.068
[6], 0.00152 µM | 1.07
[6], 0.00457 µM | 1.06
[6], 0.01372 µM | 1.05
[6], 0.04115 µM | 1.04
[6], 0.1235 µM | 1.06
[6], 0.3704 µM | 1.04
[6], 1.111 µM | 1.03
[6], 3.333 µM | 1.03
[6], 10 µM | 1.05
[7], 0.00017 µM | 1.03
[7], 0.00051 µM | 1.06
[7], 0.00152 µM | 1.05
[7], 0.00457 µM | 1.04
[7], 0.01372 µM | 1.03
[7], 0.04115 µM | 1.03
[7], 0.1235 µM | 1.05
[7], 0.3704 µM | 1.02
[7], 1.111 µM | 0.995
[7], 3.333 µM | 1
[7], 10 µM | 0.864
[8], 0.00017 µM | 1.12
[8], 0.00051 µM | 1.1
[8], 0.00152 µM | 1.12
[8], 0.00457 µM | 1.13
[8], 0.01372 µM | 1.13
[8], 0.04115 µM | 1.11
[8], 0.1235 µM | 1.12
[8], 0.3704 µM | 1.15
[8], 1.111 µM | 1.14
[8], 3.333 µM | 1.15
[8], 10 µM | 1.17
[9], 0.00017 µM | 1.106
[9], 0.00051 µM | 1.1
[9], 0.00152 µM | 1.084
[9], 0.00457 µM | 1.08
[9], 0.01372 µM | 1.07
[9], 0.04115 µM | 1.05
[9], 0.1235 µM | 1.05
[9], 0.3704 µM | 1.032
[9], 1.111 µM | 1.024
[9], 3.333 µM | 1.022
[9], 10 µM | 0.987
[10], 0.00017 µM | 1.03
[10], 0.00051 µM | 1.03
[10], 0.00152 µM | 0.953
[10], 0.00457 µM | 0.94
[10], 0.01372 µM | 0.927
[10], 0.04115 µM | 0.925
[10], 0.1235 µM | 0.868
[10], 0.3704 µM | 0.8
[10], 1.111 µM | 0.733
[10], 3.333 µM | 0.701
[10], 10 µM | 0.659
[11], 0.00017 µM | 1.05
[11], 0.00051 µM | 1.01
[11], 0.00152 µM | 1.01
[11], 0.00457 µM | 0.978
[11], 0.01372 µM | 0.955
[11], 0.04115 µM | 0.962
[11], 0.1235 µM | 0.903
[11], 0.3704 µM | 0.902
[11], 1.111 µM | 0.861
[11], 3.333 µM | 0.767
[11], 10 µM | 0.683
[12], 0.00017 µM | 1.12
[12], 0.00051 µM | 1.13
[12], 0.00152 µM | 1.1
[12], 0.00457 µM | 1.08
[12], 0.01372 µM | 1.05
[12], 0.04115 µM | 1.06
[12], 0.1235 µM | 1.05
[12], 0.3704 µM | 1.03
[12], 1.111 µM | 1.01
[12], 3.333 µM | 0.999
[12], 10 µM | 0.974
